Experimental data reported in patent US20100022527A1, “BIPHENYL SUBSTITUTED SPIROTETRONIC ACIDS AND THEIR USE FOR THE TREATMENT OF RETROVIRAL DISEASES” (priority 2006, published 2010).

Molecular target: T1, HIV-1 protease wild type protein (Human immunodeficiency virus type 1 group M subtype B, UniProt P04585)
T1 construct: HIV-1 protease wild type protein; purchased AscoProt Biotech, Prague, Czech Republic
Test: Biochemical protease assay
Procedure: For the determination of their in vitro activity on HIV proteases the test substances are dissolved in DMSO and serially diluted. In each case 0.5 μl of substance dilution, 20 μl of 0.2-1 nM HIV-1 protease wild type or mutant protein (e.g., multiresistant isolate “35513”: L10I, I15V, L19I, K20R, E35D, M36I, R41K, I54V, L63P, H69K, A71V, T74P, I84V, L89M, L90M, 193L, AscoProt Biotech, Prague, Czech Republic) in buffer 1 (50 mM sodium acetate pH 4.9, 0.02% BSA, 0.1 mM EDTA, 0.5 mM DTT) and 20 μl of 8 μM substrate (M1865 from Bachem, Bubendorf, Switzerland; Matayoshi et al., Science 1990, 247, 954-8) in buffer 1 are added successively to a 384 well microtiter plate (Greiner, Frickenhausen, Germany), incubated for 60-180 minutes at 32° C. and the fluorescence is measured (e.g., Tecan Safire, 340 nm extinction, 520 nm emission). IC50 values are determined by graphical plotting the substance concentration against the percentage inhibition.

Row | Compound | IC50
1 | Cc1cc(-c2cccc(S(C)(=O)=O)c2)c(Cl)cc1C1=C(O)C2(CCCN(S(=O)(=O)Cc3ccccc3)C2)OC1=O (stereo not shown) [Example 110] | ≤ 100 nM
2 | Cc1cc(-c2cccc(S(C)(=O)=O)c2)c(Cl)cc1C1=C(O)C2(CCCN(C(=O)/C=C/c3cccnc3)C2)OC1=O (stereo not shown) [Example 111] | ≤ 100 nM
3 | Cc1cc(-c2cccc(S(C)(=O)=O)c2)c(Cl)cc1C1=C(O)C2(CCCN(C(=O)CCCS(N)(=O)=O)C2)OC1=O (stereo not shown) [Example 113] | ≤ 100 nM
4 | Cc1cc(-c2cccc(S(C)(=O)=O)c2)c(Cl)cc1C1=C(O)C2(CCCN(S(=O)(=O)CCCC(F)(F)F)C2)OC1=O (stereo not shown) [Example 114] | ≤ 100 nM
5 | COCCNC(=O)CN1CCCC2(C1)OC(=O)C(c1cc(Cl)c(-c3cccc(S(C)(=O)=O)c3)cc1C)=C2O (stereo not shown) [Example 116] | ≤ 100 nM
6 | CC/C=C\C(=O)N1CCCC2(C1)OC(=O)C(c1cc(Cl)c(-c3cccc(S(C)(=O)=O)c3)cc1C)=C2O (stereo not shown) [Example 120] | ≤ 100 nM
7 | Cc1cc(-c2cccc(S(C)(=O)=O)c2)c(Cl)cc1C1=C(O)C2(CCCN(C(=O)/C=C\c3cnn(C)c3)C2)OC1=O (stereo not shown) [Example 121] | ≤ 100 nM
8 | C/C(=C\C(=O)N1CCCC2(C1)OC(=O)C(c1cc(Cl)c(-c3cccc(S(C)(=O)=O)c3)cc1C)=C2O)CO (stereo not shown) [Example 122] | ≤ 100 nM
9 | Cc1cc(-c2cccc(S(C)(=O)=O)c2)c(Cl)cc1C1=C(O)C2(CCCN(C(=O)/C=C\c3c[nH]cn3)C2)OC1=O (stereo not shown) [Example 123] | ≤ 100 nM
10 | Cc1cc(-c2cccc(S(C)(=O)=O)c2)c(Cl)cc1C1=C(O)C2(CCCN(C(=O)/C=C\c3cccc(C#N)c3)C2)OC1=O (stereo not shown) [Example 124] | ≤ 100 nM
11 | Cc1cc(-c2cccc(S(C)(=O)=O)c2)c(Cl)cc1C1=C(O)C2(CCCN(CC(=O)Nc3ccccc3)C2)OC1=O (stereo not shown) [Example 126] | ≤ 100 nM
12 | Cc1cc(-c2cccc(S(C)(=O)=O)c2)c(Cl)cc1C1=C(O)C2(CCCN(CC(=O)NCc3ccccc3)C2)OC1=O (stereo not shown) [Example 128] | ≤ 100 nM
13 | Cc1cc(-c2cccc(S(C)(=O)=O)c2)c(Cl)cc1C1=C(O)C2(CCCN(CC(=O)C(C)(CF)CF)C2)OC1=O (stereo not shown) [Example 129] | ≤ 100 nM
14 | Cc1cc(-c2cccc(S(C)(=O)=O)c2)c(Cl)cc1C1=C(O)C2(CCCN(CC(=O)NCCc3ccccc3)C2)OC1=O (stereo not shown) [Example 130] | ≤ 100 nM
15 | Cc1ccccc1CNC(=O)CN1CCCC2(C1)OC(=O)C(c1cc(Cl)c(-c3cccc(S(C)(=O)=O)c3)cc1C)=C2O (stereo not shown) [Example 132] | ≤ 100 nM
16 | Cc1ccc(CNC(=O)CN2CCCC3(C2)OC(=O)C(c2cc(Cl)c(-c4cccc(S(C)(=O)=O)c4)cc2C)=C3O)cc1 (stereo not shown) [Example 133] | ≤ 100 nM
17 | Cc1cc(-c2cccc(S(C)(=O)=O)c2)c(Cl)cc1C1=C(O)C2(CCCN(CC(=O)NC(C)c3ccccc3)C2)OC1=O (stereo not shown) [Example 134] | ≤ 100 nM
18 | Cc1cc(-c2cccc(S(C)(=O)=O)c2)c(Cl)cc1C1=C(O)C2(CCCN(C(=O)CCCc3ccccc3)C2)OC1=O (stereo not shown) [Example 135] | ≤ 100 nM
19 | Cc1cc(-c2cccc(S(C)(=O)=O)c2)c(Cl)cc1C1=C(O)C2(CCCN(C(=O)CC3CCCC3)C2)OC1=O (stereo not shown) [Example 136] | ≤ 100 nM
20 | COC(=O)CCCC(=O)N1CCC2(CC1)OC(=O)C(c1cc(Cl)c(-c3cccc(S(C)(=O)=O)c3)cc1C)=C2O [Example 138, methyl 5-{3-[2-chloro-5-methyl-3′-(methylsulfonyl)biphenyl-4-yl]-4-hydroxy-2-oxo-1-oxa-8-azaspiro[4.5]dec-3-en-8-yl}-5-oxopentanoate] | ≤ 100 nM
21 | Cc1cc(-c2cccc(S(C)(=O)=O)c2)c(Cl)cc1C1=C(O)C2(CCN(C(=O)CCCC(C)C)CC2)OC1=O [Example 139] | ≤ 100 nM
22 | Cc1cc(-c2cccc(S(C)(=O)=O)c2)c(Cl)cc1C1=C(O)C2(CCN(C(=O)CCCS(N)(=O)=O)CC2)OC1=O [Example 140] | ≤ 100 nM

Row | Compound | IC50
23 | COc1ccc(CCCC(=O)N2CCC3(CC2)OC(=O)C(c2cc(Cl)c(-c4cccc(S(C)(=O)=O)c4)cc2C)=C3O)cc1 [Example 141] | ≤ 100 nM
24 | Cc1cc(-c2cccc(S(C)(=O)=O)c2)c(Cl)cc1C1=C(O)C2(CCN(C(=O)Cc3ccc(S(=O)(=O)O)cc3)CC2)OC1=O [Example 143] | ≤ 100 nM
25 | Cc1cc(-c2cccc(S(C)(=O)=O)c2)c(Cl)cc1C1=C(O)C2(CCN(C(=O)Cc3ccc(OC(F)(F)F)cc3)CC2)OC1=O [Example 144] | ≤ 100 nM
26 | Cc1cc(-c2cccc(S(C)(=O)=O)c2)c(Cl)cc1C1=C(O)C2(CCN(C(=O)CCCc3ccccc3)CC2)OC1=O [Example 145] | ≤ 100 nM
27 | Cc1cc(-c2cccc(S(C)(=O)=O)c2)c(Cl)cc1C1=C(O)C2(CCN(C(=O)CCc3cccnc3)CC2)OC1=O [Example 147] | ≤ 100 nM
28 | Cc1cc(-c2cccc(S(C)(=O)=O)c2)c(Cl)cc1C1=C(O)C2(CCN(C(=O)OCC(C)(C)C)CC2)OC1=O [Example 152] | ≤ 100 nM
29 | CCOC(=O)N1CCC2(CC1)OC(=O)C(c1cc(Cl)c(-c3cccc(S(C)(=O)=O)c3)cc1C)=C2O [Example 153] | ≤ 100 nM
30 | Cc1cc(-c2cccc(S(C)(=O)=O)c2)c(Cl)cc1C1=C(O)C2(CCN(C(=O)N3CCCC3)CC2)OC1=O [Example 155] | ≤ 100 nM
31 | Cc1cc(-c2cccc(S(C)(=O)=O)c2)c(Cl)cc1C1=C(O)C2(CCN(C(=O)N(C(C)C)C(C)C)CC2)OC1=O [Example 156] | ≤ 100 nM
32 | CCN(CC)C(=O)N1CCC2(CC1)OC(=O)C(c1cc(Cl)c(-c3cccc(S(C)(=O)=O)c3)cc1C)=C2O [Example 157] | ≤ 100 nM
33 | CC(=O)N1CCC2(CC1)OC(=O)C(c1cc(Cl)c(-c3cccc(S(C)(=O)=O)c3)cc1C)=C2O [Example 158] | ≤ 100 nM
34 | Cc1cc(-c2cccc(S(C)(=O)=O)c2)c(Cl)cc1C1=C(O)C2(CCCN(CC(=O)NCc3ccncc3)C2)OC1=O (stereo not shown) [Example 161, 2-{3-[2-Chloro-5-methyl-3′-(methylsulfonyl)biphenyl-4-yl]-4-hydroxy-2-oxo-1-oxa-7-azaspiro[4.5]dec-3-en-7-yl}-N-(pyridin-4-ylmethyl)acetamide] | ≤ 100 nM
35 | Cc1cc(-c2cccc(S(C)(=O)=O)c2)c(Cl)cc1C1=C(O)C2(CCCN(CC(=O)NCc3cccnc3)C2)OC1=O (stereo not shown) [Example 162] | ≤ 100 nM
36 | Cc1cc(-c2cccc(S(C)(=O)=O)c2)c(Cl)cc1C1=C(O)C2(CCCN(CC(=O)NCc3ccccn3)C2)OC1=O (stereo not shown) [Example 163] | ≤ 100 nM
37 | Cc1cc(-c2cccc(S(C)(=O)=O)c2)c(Cl)cc1C1=C(O)C2(CCCN(CC(=O)NCc3ccc(OC(F)(F)F)cc3)C2)OC1=O (stereo not shown) [Example 166] | ≤ 100 nM
38 | Cc1cc(-c2cccc(S(C)(=O)=O)c2)c(Cl)cc1C1=C(O)C2(CCCN(CC(=O)NCc3ccsc3)C2)OC1=O (stereo not shown) [Example 167] | ≤ 100 nM
39 | Cc1cc(-c2cccc(S(C)(=O)=O)c2)c(Cl)cc1C1=C(O)C2(CCCN(CC(=O)NCc3ccoc3)C2)OC1=O (stereo not shown) [Example 168] | ≤ 100 nM
40 | Cc1cc(-c2cccc(S(C)(=O)=O)c2)c(Cl)cc1C1=C(O)C2(CCCN(CC(=O)NCc3ccco3)C2)OC1=O (stereo not shown) [Example 169] | ≤ 100 nM
41 | Cc1cc(-c2cccc(S(C)(=O)=O)c2)c(Cl)cc1C1=C(O)C2(CCCN(CC(=O)NCc3cccs3)C2)OC1=O (stereo not shown) [Example 170] | ≤ 100 nM
42 | Cc1cc(-c2ccc(N)cc2)c(Cl)cc1C1=C(O)C2(CCCCC2)OC1=O [Example 171, 3-(4′-Amino-2-chloro-5-methylbiphenyl-4-yl)-4-hydroxy-1-oxaspiro[4.5]dec-3-en-2-one] | ≤ 100 nM
43 | Cc1cc(-c2cccc(N)c2)c(Cl)cc1C1=C(O)[C@]2(CC[C@@H]3CCC[C@@H]3C2)OC1=O [Example 175] | ≤ 100 nM
